In one assay the test system is rat papillary muscle. In words: Isometric tension (electrically stimulated twitches) in papillary muscle. The class given is cell-based. Particulars: for maximum alterations to the papillary muscle twitches: 10 to 100 μM, not significant; for amplitude of the papillary muscle twitches: 100 μM, 1 Hz stimulation. The protocol: (§1) Once the experiments have been carried out, the findings were subject to statistical analyses being expressed in average ±SEM as a percentage of the control value, and graphs were drawn up using the Sigma Plot 5.0 program to represent the data obtained. For the statistical analysis of the effects on the different muscle tissues, the difference was assessed among the concentrations of the same derivative, using the “t” Student test. In order to ascertain the difference among the derivatives, the one-way ANOVA test was used. The differences were considered as significant for p<0.05. The Cl50 was expressed as an average ±SEM of the values obtained for each experiment through non-linear regression based on the y=yo+ae^−bx equation.
(§2) After anesthesia with ethyl ether, male Wistar rats weighing between 240-280 grams were sacrificed through cervical dislocation. The heart was removed rapidly and the papillary muscle and the ventricular bundles were dissected in Tyrode's solution, whose composition is given in Table 2 below, at room temperature. The muscles were placed in vertical chambers with a capacity of 10 mL and fixed at their extremities: the lower portion to a hook located in the stimulation electrode fixation rod and the upper portion connected to a power transducer (Grass FT03) for recording the muscle twitches.
(§3) The muscles were stimulated electrically with supra-maximum voltage (50-60 V) through a stimulator (Grass S88) at a frequency of 1.0 Hz. The signals captured by the transducer were amplified (Cyberamp 380, Axon Instruments) and the isometric tension was digitized (Digidata 1322A, Axon Instruments) and stored on a computer. The screening and analysis of the experiment was handled through the Axoscope 8.0 program (Axon Instruments) (Sudo & cols., 2001). The chamber solution was bubbled continuously with a carbogenic mixture (95% O2/5% CO2) and kept at a temperature of 37° C.
(§4) After the stabilization of the muscle twitches (approximately 30 min) the records were carried out in the absence (control) and presence of rising concentrations (10 to 100 μM) of the different L294 analogs, diluted in DMSO. The records were carried out in pairs (two papillary and two ventricle) thus allowing the control experiments to be carried out in one of the pairs, meaning with rising quantities of DMSO equivalent to those used to dilute the substances. The reversibility of the effect of the substances was investigated at the end of each experiment, noting the recovery of the muscle twitches after bathing the preparation with Tyrode's solution.

The subject of assay [1] is aorta rings with no preserved endothelium. As to the kind of experiment: Phenylephrine-induced contracture in aorta rings without endothelium. Type of assay: cell-based, rat. The following applies: phenylephrine 10 μM; for IC50: Rattus norvegicus, without endothelium, six experiments, read-out: CI50 (MM) Average ± SEM; for vasodilatory / relaxing effect on phenylephrine contracture, without endothelium: result in words. The protocol: as §1
(§5) Male Wistar rats weighing between 240-280 grams were sacrificed through dislocation of the cervical column under anesthesia using ethyl ether. The aorta artery was removed and transferred to a Petri dish containing modified Tyrode's solution whose composition is described in Table 3 below, where the vessel was cleaned and the connective tissue was removed. According to the scheduled Experiment Protocol, the vascular endothelium was removed mechanically with the assistance of a polyethylene rod. The artery was divided into rings with a width of 2-3 mm. Two hooks were placed in the wall of the vessel in order to record the tension generated by the muscle in a transversal direction. To do so, one of the hooks was tied to a fixed point in the chamber and the other to a power transducer (FT 03) for recording the isometric tension. The tension generated by the muscle was transformed into a digitized electric signal (Digidata 1322A) and stored in a computer for subsequent analysis using the Axoscope 8.0 program (Axon Instruments, Inc). The chamber was filled with Krebs solution, oxygenated and kept at a temperature of 37° C.
(§6) After stabilizing the preparation, approximately 120 minutes, the Experiment Protocol began. Initially, in order to identify the presence or absence of the vascular endothelium, the preparation was exposed to phenylephrine (10 μM) and when the contracture in response to this substance was stabilized, acetylcholine (10 μM) was added to the nutrient solution. Relaxation of over 80% in response to the acetylcholine indicated the full integrity of the endothelium and relaxation of less than 10% indicated the absence of endothelium. The tissues in which the relaxation intensity fell between >10% and <80% were discarded. In order to investigate the vasodilator effect of the different L294 analogs, they were added to the experiment chambers in rising concentration after the contracture stabilization of the vessel induced by phenylephrine. The tension registered after treatment with each of the L294 analog concentrations was normalized as a function of the amplitude of the contracture triggered by phenylephrine. For the purpose of comparing the potency of some of the L294 analogs, the Cl50 was determined for each experiment using the y=yo+ae^−bx equation and their mean was used for the statistical analysis.
The importance of the presence of vascular endothelium in the vasodilatory action of the L294 analogs was assessed in experiments in which these cells were removed mechanically. […] When the findings of the experiments without the endothelium were analyzed as a whole, the absence of the L790 effect was confirmed. […] The maximum relaxation caused by the L787 and L789 analogs was less than 50% of the control, and the other analogs caused relaxation in the following decreasing order of efficacy: L785>L788>L786. Once again, attention is drawn to the marked efficiency of the L785 and L788 analogs.

The test system of assay [2] is rat aorta rings with the vascular endothelium preserved. In words: Phenylephrine-induced contracture in aorta rings with preserved endothelium. Particulars: phenylephrine 10 μM; for IC50: Rattus norvegicus, with endothelium, six experiments, read-out: CI50 (μM) Average ± SEM. Type of assay: cell-based. The protocol:
as §1, §5, §6

The test system of the next assay is soleus (SOL) muscle. As to the kind of experiment: Electrically induced twitch amplitude in slow-fiber skeletal muscle (SOL). The class given is cell-based, mice. Particulars: for SOL twitch amplitude 30 min-Washing (% of the control): 30 min after washing. As to the method: (§7) Male mice weighing 22-28 g were sacrificed through cervical dislocation and the extensor digitorium longus (EDL) and soleus (SOL) muscles were dissected in a Ringer-Krebs solution, whose composition is given in Table 9, at room temperature. The muscles were placed in vertical chambers with a capacity of 10 ml, and were fixed by their ends to the stimulation electrode fixation rod and a power transducer (Grass FT03) for registering muscle twitches. The chamber solution was bubbled continuously with a carbogenic mixture (95% O2/5% CO2) and kept at a temperature of 37° C. The muscles were stimulated electrically through a stimulator (Grass S88) at a frequency of 0.2 Hz, at 37° C. After the stabilization of the muscle twitches (±30 minutes) a control record was taken in the absence of the drug, and subsequently rising concentrations (from 10 μM to 200 μM) of the L294 derivatives were added every ten minutes, diluted in DMSO. […] The signals recorded by the transducer were amplified (Cyberamp) and the isometric tension was digitized (Digidata 1322A) and stored on a computer. The screening and analysis of the experiment was handled through the use of the Axoscope 8.0 program. (Zapata-Sudo, 2003).
(§8) A measurement of the electrically-induced twitch amplitude was selected to assist the effects of the L294 analogs on the skeletal muscle inotropism. One muscle consisting of fast fibers (extensor digitorium longus-EDL) and the other of slow fibers (soleus-SOL) taken from mice were selected for this purpose. Differences in the timing of the twitches between the fast and slow muscles are shown at the faster recording speed. […] Washing the preparation with Krebs solution caused a partial reversion of the effects induced by the L786.

Assay [3] deals with left ventricle bundles of a rat heart. In words: Isometric tension in ventricular bundles. The following applies: for muscular response in ventricular bundles: concentration not given, alterations not greater than 10%. The class given is cell-based. As to the method:
as §1, §2, §3, §4

Assay [4] has as its system extensor digitorium longus (EDL) muscle. In words: Electrically induced twitch amplitude in fast-fiber skeletal muscle (EDL). Type of assay: cell-based, mice. The following applies: for EDL twitch amplitude 30 min-Washing (% of the control): 30 min after washing. The protocol:
as §7, §8

The test system of assay [5] is corpus cavernosa of a male guinea pig. As to the kind of experiment: Phenylephrine-induced contracture in corpus cavernosa. Type of assay: cell-based. The following applies: 200 μM; phenylephrine 30 μM. As to the method: It is noted that L788 concentration-dependent inhibition occurred for the contractile response of the corpus cavernosa.
This same Protocol Experiment was repeated for the other derivatives being tested and for the solvent separately (FIG. 11). It was noted that only L788 caused significant reaction, where the amplitude of the contracture at a concentration of 200 μM was 46.5±8.8% of the control. […] The effect of the solvent (DMSO) was tested at volumes corresponding to those used for the derivatives, and was unable to cause any significant alterations to the contractility of this tissue.

For assay [6], the system named is rat aorta rings with preserved endothelium. In words: KCl-induced contracture in aorta rings with preserved endothelium. Type of assay: cell-based. The following applies: KCl 40 mM. As to the method: as §1, §5, §6
The effects of the L294 analogs were investigated in rat aorta rings with preserved endothelium whose contracture was induced by increasing the extra-cellular concentration of KCl to 40 mM. Of the seven L294 analogs, this test was carried out only with the L785, L786, L789 and L790, in this group of experiments.

Assay [7] deals with rat aorta rings with no endothelium. As to the kind of experiment: KCl-induced contracture in aorta rings without endothelium. The class given is cell-based. The following applies: Rattus norvegicus; KCl 40 mM; without endothelium; six experiments; read-out: CI50 (μM) Average ± SEM. As to the method: as §1, §5
as §6, with “[…] […]” for “In order to investigate the vasodilator effect of the different L294 analogs, they were added to the experiment chambers in rising concentration after the contracture stabilization of the vessel induced by phenylephrine. The tension registered after treatment with each of the L294 analog concentrations was normalized as a function of the amplitude of the contracture triggered by phenylephrine.”

“And” between values parts separate entries of the source, which are not always exact repeats. Equal values may be shown once. “Also recorded” adds a separate entry of the source.

As for `Cc1ccc(/C=N/NC(=O)c2ccc3c(c2)OCO3)s1` [L787, 1,3-Benzodioxol-5-carboxylic acid, [1-(5-methyl-thiophene-2-yl)-meth-(E)-ylidene]-hydrazide], the “maximum alterations to the papillary muscle twitches” value (shortened to “maximum alterations”) with rat papillary muscle is 115.0±5.0 % of the control. In addition, in [1], the IC50 stood at 273 ± 22 µM. In assay [2], the IC50 was 293 ± 76 µM and the “maximum inhibition levels of phenylephrine contracture, with endothelium” value (shortened to “maximum inhibition levels”) was 37.1±7.0%. The “SOL twitch amplitude 200 μM (% of the control)” value in the assay on soleus (SOL) muscle is given as 47.6±4.2 % of the control. Also, the “muscular response in ventricular bundles” value in assay [3] was 105±6.9 % of the control. For the same compound, in [4], the “EDL twitch amplitude 200 μM (% of the control)” value is on record as 37.8±3.5 % of the control and the “EDL twitch amplitude 30 min-Washing (% of the control)” value is 38.6 ± 2.5 % of the control.

Turning to `C=CCN(/N=C/c1cccs1)C(=O)c1ccc2c(c1)OCO2` [L788, 1,3-Benzodioxol-5-carboxylic acid, N′-[1-thiophene-2-yl-meth-(E)-ylidene]-N-allyl-hydrazide], in the assay with rat papillary muscle, the “amplitude of the papillary muscle twitches” value is on record as 81.2±2.6 % of the control. The IC50 in [1] is 65.7 ± 8 µM. Moreover, in assay [2], the IC50 was determined as 67.9 ± 6.5 µM. In addition, in [2] (maximum effect), the “amplitude of the phenylephrine contracture in rings with whole endothelium” value was 10.4±3.2 % of the control. In the assay with soleus (SOL) muscle, the “SOL twitch amplitude 200 μM (% of the control)” value was 45.1±5.1 % of the control and the “SOL twitch amplitude 30 min-Washing (% of the control)” value is given as 37.8 ± 4.7 % of the control. Further, in [3] (100 μM), the “muscle twitches / contractility in ventricular bundles” value is 74.9±5.1 % of the control. Besides, in [4], the “EDL twitch amplitude 200 μM (% of the control)” value was 47.6±5.4 % of the control and the “EDL twitch amplitude 30 min-Washing (% of the control)” value is 26.8 ± 2.3 % of the control. In addition, in [5], the “amplitude of the phenylephrine-induced contracture of the corpus cavernosa” value is 46.5±8.8 % of the control.

Take `O=C(N/N=C/c1ccc([N+](=O)[O-])s1)c1ccc2c(c1)OCO2` [L790, 1,3-Benzodioxol-5-carboxylic acid, [1-(5-nitro-thiophene-2-yl)-meth-(E)-ylidene]-hydrazide]: the “maximum alterations” value with rat papillary muscle is listed as 87.8±5.6 % of the control. The “vasodilatory / relaxing effect on phenylephrine contracture, without endothelium” value in assay [1] is given as “absence of the relaxing effect; also recorded: lacked vasodilatory action; also recorded: did not cause a significant relaxing effect”. Besides, in assay [2], the IC50 was 216 ± 39.3 µM and the “maximum inhibition levels” value stood at 47.0±5.9%. Moreover, in the assay with soleus (SOL) muscle, the “SOL twitch amplitude 200 μM (% of the control)” value is listed as 71.3±5.2 % of the control and the “SOL twitch amplitude 30 min-Washing (% of the control)” value is 70.8 ± 7.7 % of the control. For the same compound, in [6] (200 μM stated for L790), the “amplitude of the KCl contracture, with endothelium” value is 74.9±8.8 % of the control. The “CI50 (μM) Average ± SEM” value in [6] (with endothelium, six experiments) is “cannot be determined”. In addition, in [6] (up to 100 μM, result in words), the “inhibition of the KCl contracture, with endothelium” value is listed as “insignificant”. In addition, in assay [3], the “muscular response in ventricular bundles” value is 92.3±1.6 % of the control. Also, in assay [4], the “EDL twitch amplitude 200 μM (% of the control)” value was 52.2±3.4 % of the control and 52.2 ± 3.8 % of the control; the “EDL twitch amplitude 30 min-Washing (% of the control)” value was 49.2 ± 5.1 % of the control. Further, the IC50 in assay [7] was 123 ± 17.3 µM.

Regarding `O=C(NNCc1cccs1)c1ccc2c(c1)OCO2` [L791, 1,3-Benzodioxol-5-carboxylic acid, N′-thiophene-2-ylmethyl-hydrazide], in the assay on rat papillary muscle, the “amplitude of the papillary muscle twitches” value was “did not significantly alter the contractile response” and the “maximum alterations” value is listed as 92.4±2.5 % of the control. The “vasodilatory / relaxing effect on phenylephrine contracture, without endothelium” value in assay [1] is “did not result in any vasodilatory activity; also recorded: lacked vasodilatory action”. In assay [2], the IC50 worked out at 173 ± 26.7 µM and the “maximum inhibition levels” value is listed as 59.2±7.8%. Also, in the assay with soleus (SOL) muscle, the “SOL twitch amplitude 200 μM (% of the control)” value is 69.3±4.8 % of the control and the “SOL twitch amplitude 30 min-Washing (% of the control)” value is given as 74.4 ± 13.8 % of the control. Further, the “muscular response in ventricular bundles” value in assay [3] is on record as 89.4±4.5 % of the control. For the same compound, the “EDL twitch amplitude 200 μM (% of the control)” value in assay [4] is 45.8±6.9 % of the control and 45.9 ± 6.9 % of the control.

For the origin of these results see patent US20080275105A1, “Selective Muscle Relaxant and Pharmaceutical Compositions” (UNIVERSIDADE FEDERAL DO RIO DE JANEIROUFRJ, priority 2004, published 2008).
